Ends that are not written are not given here.
Legend:
[1] = tested on: sympathetic (TH+) and sensory (tdTomato+) fibers of LNs; assay: 6-OHDA-mediated chemical sympathectomy, sensory and sympathetic fiber density in popliteal LNs (whole-mount imaging); assay type: in vivo, mouse; settings: 6-OHDA 100 mg kg-1 intraperitoneally daily for 5 days vs saline; popliteal LNs of Nav1.8Cre/+; Rosa26LSL-tdTomato/+ mice
Excerpt: To address the interdependence between these two types of innervation, Applicants assessed the sensitivity of each type of fiber to 6-hydroxydopamine (6-OHDA)-mediated chemical sympathectomy or diphtheria toxin A (DTA)-mediated genetic ablation of Nav1.8 lineage neurons. […] Thus, Applicants unexpectedly discovered that LNs receive not only sympathetic but also sensory innervation, two categorically different types of innervation that are anatomically independent of each other.
Whole mount immunohistochemistry of LNs was performed using an iDISCO protocol with methanol pretreatment optimized for LNs (Renier et al., 2014). Briefly, adult animals (6-12 weeks) were perfused with 25 mL of PBS (Hyclone) and 25 mL of 4% paraformaldehyde (PFA, Sigma) sequentially at room temperature (RT). Peripheral lymph nodes (PLNs), including popliteal and inguinal lymph nodes (popLNs and iLNs), were postfixed with 4% PFA for 1 hr at 4° C. […]
For sympathetic denervation, the stock solution of 6-hydroxydopamine (6-OHDA) (Sigma) was prepared in water at 42 mg/mL and stored at −20° C. […] Animals were analyzed the following day.
For quantification of innervation density of LNs as in FIGS. 1C-1F, relevant channels were first masked with the LN isosurface as described above. […]

[2] = mice; GAL2 selective agonist; cited from earlier work

Row | Compound | effect on sensory innervation (tdTomato+ fiber density) of LNs [1] | effect on sympathetic innervation (TH+ fiber density) of LNs [1] | anticonvulsant activity [2]
1 | NCCc1cc(O)c(O)cc1O [6-OHDA, 6-hydroxydopamine] | not compromised | efficient sympathetic denervation of LNs | 
2 | Galanin 2-11 amide: GAL2 selective galanin receptor agonist, CAS #367518-31-8 (WTLNSAGYLL-NH2; UniProt P22466 34-43, looked up, fragment) |  |  | anticonvulsant in mice

From patent publication US12702696B2, “Methods and composition for modulating immune response and immune homeostasis” (Massachusetts Institute of Technology, priority 2019, dated 2026)
